In patent US6462017B1, “Method of reducing side effects of chemotherapy in cancer patients” (SciClone Pharmaceuticals, Inc., priority 2000, dated 2002):
Where no end group is shown, it is not given here.

Tests used:
cancer patients = assay: Side effects of thymosin α1 administration; type: in vivo, humans; settings: administration in conjunction with antineoplastics
[1] = system: cancer patients (lung, gastric, breast cancer) receiving chemotherapy; assay: Nausea and vomiting classified according to WHO criteria, same trial; type: in vivo, humans; settings: Cohort A with Tα1, n 54, P < 0.0005
Experimental: (§1) Method: A randomized crossover open label trial was performed. A total of sixty patients, twenty with lung cancer, twenty with gastric cancer and twenty with breast cancer were studied during two complete cycles of chemotherapy. All patients were randomized into two groups. In group 1, patients received chemotherapy with thymosin α1 in the first cycle, and without thymosin α1 in the second cycle. While patients in group 2 received chemotherapy without thymosin α1 in the first cycle, and with thymosin α1 in the second cycle. The patients were treated as follows:
(§2) Twenty lung cancer patients were treated with 100 mg of Etoposide IV on days 1-5 and 40 mg of Cisplatin I.V. on days 1-3 in a 21 day cycle.
(§3) Twenty gastric cancer patients were treated with 100 mg of Etoposide IV on days 1-5, 30 mg/m^2 Calcium Leucovorin I.V. on days 1-5 and 500 mg/m^2 5-Fluorouricil (5-FU) I.V. on days 1-5.
(§4) Twenty breast cancer patients were treated with 5-Fluorouricil 500 mg/m^2, Adriamycin I.V. 30 mg/m^2 I.V. on day 1 and cyclophosphamide 500 mg/m^2 I.V. on day 1.
(§5) A mild anti-emetic consisting of 20 mg metoclopamide, I.M. and 5 mg Dexamethasone I.V. were given to all patients on days 1-5. All subjects on thymosin received six injections of 1.6 mg s.c. Tα1 on each of the four days immediately preceding the chemotherapy and on days two and four following chemotherapy. All patients who have completed the two cycles of chemotherapy, then were reallocated into two cohorts, A and B. Cohort A are patients with Tα1, and Cohort B are patients without Tα1.

VIP receptor = settings: in vitro; cited from earlier work
[2] = system: cancer patients (lung, gastric, breast cancer) receiving chemotherapy; assay: Quality of life scored scale, randomized crossover open label trial of chemotherapy cycles with and without Tα1; type: in vivo, humans
Experimental: as §1, §2, §3, §4, §5
Analysis: Quality of life was analyzed using a scored scale for (1) loss of appetite, (2) loss of sleep, (3) fatigue, (4) reduction in daily activity, (5) decline in overall feeling, (6) depression and (7) nausea and vomiting. Maximum total score was 35 points.

thymosin α1 (SDAAVDTSSEITTKDLKEKKEVVEEAEN; not fully specified; ends and bridges not checked; UniProt P06454 2-29, looked up) [Tα1, acidic polypeptide isolated from thymosin fraction 5, an immunomodulator that acts primarily by enhancing T-cell function]
Side effects of thymosin α1 (cancer patients): does not appear to result in any side effects
Nausea and vomiting WHO Gr. 4, number of patients ([1]; without Tα1 0): 0
Nausea and vomiting WHO Grade 0, number of patients ([1]; without Tα1 4/53): 7/55
Nausea and vomiting WHO Gr. 3, number of patients ([1]; without Tα1 11): 1
Nausea and vomiting WHO Gr. 1, number of patients ([1]; without Tα1 19): 33
Nausea and vomiting WHO Gr. 2, number of patients ([1]; without Tα1 19): 13
VIP receptor binding (VIP receptor): has a VIP receptor binding effect
Effect on quality of life scores ([2]; addition of Tα1 to chemotherapy cycles compared with cycles without Tα1): significantly increases the quality of life scores
Fatigue, quality of life score ([2]; cycles with Tα1 (1.6 mg s.c., six injections) vs. cycles without Tα1 3.70, p = 0.0001): 4.05 vs. 3.70 p = 0.0001
Depression, quality of life score ([2]; cycles with Tα1 (1.6 mg s.c., six injections) vs. cycles without Tα1 3.72, p = 0.003): 4.01 vs. 3.72 p = 0.003
Reduction in Daily Activity, quality of life score ([2]; cycles with Tα1 (1.6 mg s.c., six injections) vs. cycles without Tα1 3.84, p = 0.0001): 4.12 vs. 3.84 p = 0.0001
Nausea and Vomiting, quality of life score ([2]; cycles with Tα1 (1.6 mg s.c., six injections) vs. cycles without Tα1 3.93, p = 0.001): 4.29 vs. 3.93 p = 0.001
Decline in Overall Feeling, quality of life score ([2]; cycles with Tα1 (1.6 mg s.c., six injections) vs. cycles without Tα1 3.94, p = 0.0001): 4.32 vs. 3.94 p = 0.0001
Loss of Appetite, quality of life score ([2]; cycles with Tα1 (1.6 mg s.c., six injections) vs. cycles without Tα1 3.99, p = 0.0001): 4.33 vs. 3.99 p = 0.0001
Loss of Sleep, quality of life score ([2]; cycles with Tα1 (1.6 mg s.c., six injections) vs. cycles without Tα1 4.10, p = 0.002): 4.41 vs. 4.10 p = 0.002
